Calls of active or inactive are those of the source. The rule behind the calls is not given here.
Legend:
[1] = biological target: T1, Adenosine receptor A1 (Homo sapiens) (UniProt P30542); experiment: Displacement of [3H]N6-R-phenylisopropyladenosine from human A1AR expressed in HEK293 cells at 10 uM by radio ligand binding assay relative to control; type: cell-based
T1 sequence (whole entry): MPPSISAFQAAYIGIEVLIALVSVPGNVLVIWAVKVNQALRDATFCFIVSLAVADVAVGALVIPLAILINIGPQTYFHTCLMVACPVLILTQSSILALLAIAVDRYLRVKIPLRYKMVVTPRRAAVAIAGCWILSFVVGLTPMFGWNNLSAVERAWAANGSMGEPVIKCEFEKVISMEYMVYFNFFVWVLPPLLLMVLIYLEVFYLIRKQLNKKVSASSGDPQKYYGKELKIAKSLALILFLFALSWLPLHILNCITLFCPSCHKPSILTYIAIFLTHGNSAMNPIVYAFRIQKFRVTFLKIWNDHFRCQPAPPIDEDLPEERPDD

[2] = biological target: Adenosine receptor A2a (Mus musculus) (UniProt Q60613); experiment: Displacement of [3H]CGS21680 from mouse A2A receptor expressed in HEK293 cells at 10 uM by radio ligand binding assay relative to control; type: cell-based
Adenosine receptor A2a [3] = biological target: T2, Adenosine receptor A2a (Homo sapiens, UniProt P29274); experiment: Displacement of [3H]2-[p-(2-carboxyethyl)phenyl-ethylamino]-5'-N-ethylcarboxamidoadenosine from human A2A receptor expressed in HEK293 cells at 10 uM by radio ligand binding assay relative to control; type: cell-based
[4] = biological target: T3, Adenosine receptor A1 (Mus musculus) (UniProt Q60612); experiment: Displacement of [125I]AB-MECA from recombinant mouse A1AR expressed in HEK293 cells at 10 uM by radio ligand binding assay relative to control; type: cell-based; settings: filed as agonist
T3 sequence (whole entry): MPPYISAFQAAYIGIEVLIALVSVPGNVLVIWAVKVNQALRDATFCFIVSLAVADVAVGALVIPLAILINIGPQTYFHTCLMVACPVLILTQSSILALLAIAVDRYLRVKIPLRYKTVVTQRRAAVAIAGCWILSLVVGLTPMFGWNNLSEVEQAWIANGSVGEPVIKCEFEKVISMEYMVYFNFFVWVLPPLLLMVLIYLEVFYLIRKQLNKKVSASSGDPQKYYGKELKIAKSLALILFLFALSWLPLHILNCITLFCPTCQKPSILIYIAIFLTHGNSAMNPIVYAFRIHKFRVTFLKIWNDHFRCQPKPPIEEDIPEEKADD

Adenosine receptor A3 [5] = biological target: T4, Adenosine receptor A3 (Homo sapiens, UniProt P0DMS8); experiment: Displacement of [125I]N6-(4-amino-3-iodobenzyl)adenosine-5'-N-methyluronamide from human […] expressed in CHO cell membranes assessed as inhibitor constant by radio ligand binding assay
T4 sequence (P0DMS8 whole entry): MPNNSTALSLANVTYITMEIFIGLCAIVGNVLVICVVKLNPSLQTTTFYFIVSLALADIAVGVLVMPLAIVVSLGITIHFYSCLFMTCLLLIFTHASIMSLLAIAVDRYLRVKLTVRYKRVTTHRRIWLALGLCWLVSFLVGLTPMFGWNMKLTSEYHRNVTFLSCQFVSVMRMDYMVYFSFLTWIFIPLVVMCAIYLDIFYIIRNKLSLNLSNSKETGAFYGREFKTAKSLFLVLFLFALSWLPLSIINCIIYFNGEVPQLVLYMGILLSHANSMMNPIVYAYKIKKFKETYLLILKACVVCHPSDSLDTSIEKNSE

[6] = biological target: Beta-3 adrenergic receptor (Homo sapiens) (UniProt P13945); experiment: Displacement of [125I]-Pindolol from human beta3 adrenergic receptor expressed in expressed in HEK Flp-In cells measured after 90 mins by microbeta scintillation counting method; type: cell-based
Adenosine receptor A3 [7] = biological target: T5, Adenosine receptor A3 (Mus musculus, UniProt Q61618); experiment: Displacement of [125I]AB-MECA from mouse […] expressed in HEK293 cell membranes assessed as inhibitor constant by radio ligand binding assay
T5 sequence (Q61618 whole entry): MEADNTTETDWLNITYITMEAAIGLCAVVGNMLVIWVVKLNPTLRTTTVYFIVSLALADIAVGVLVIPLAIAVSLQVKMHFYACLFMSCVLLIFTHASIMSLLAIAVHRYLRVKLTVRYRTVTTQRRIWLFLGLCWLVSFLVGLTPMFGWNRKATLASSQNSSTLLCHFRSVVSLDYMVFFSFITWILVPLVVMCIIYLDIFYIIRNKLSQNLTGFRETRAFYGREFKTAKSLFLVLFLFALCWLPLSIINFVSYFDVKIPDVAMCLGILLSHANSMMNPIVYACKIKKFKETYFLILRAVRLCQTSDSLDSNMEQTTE

[8] = Oral bioavailability in Sprague-Dawley rat; type: ADME, organism-based; settings: in vivo
HepG2 = experiment: Cytotoxicity against human HepG2 cells; type: cell-based
[9] = Stability in Sprague-Dawley rat liver microsomes; type: ADME, Microsome
[10] = Stability in Sprague-Dawley rat plasma; type: ADME, cell-free
Adenosine receptor A1 [11] = biological target: T6, Adenosine receptor A1 (Homo sapiens, UniProt P30542); experiment: Displacement of [3H]N6-R-phenylisopropyladenosine from human A1AR receptor expressed in HEK293 cells assessed as inhibitory constant by radio ligand binding assay; type: cell-based
T6 sequence (P30542 whole entry): T1 sequence (whole entry)

Adenosine receptor A1 [12] = biological target: T7, Adenosine receptor A1 (Mus musculus, UniProt Q60612); experiment: Displacement of [125I]AB-MECA from recombinant mouse A1AR expressed in HEK293 cells assessed as inhibitory constant by radio ligand binding assay; type: cell-based
T7 sequence (Q60612 whole entry): T3 sequence (whole entry)

Adenosine receptor A2a [13] = biological target: T2, Adenosine receptor A2a; experiment: Displacement of [3H]2-[p-(2-carboxyethyl)phenyl-ethylamino]-5'-N-ethylcarboxamidoadenosine from human A2A receptor expressed in HEK293 cells assessed as inhibitor constant by radio ligand binding assay; type: cell-based
Adenosine receptor A3 [14] = biological target: T4, Adenosine receptor A3; experiment: Binding affinity to human A3AR assessed as inhibitor constant
[15] = biological target: T8, Adenosine receptor A2b (Homo sapiens) (UniProt P29275); experiment: Agonist activity at Gs-coupled human A2B […] receptor expressed in CHO at 10 uM by cAMP based assay; type: functional, cell-based
T8 sequence (whole entry): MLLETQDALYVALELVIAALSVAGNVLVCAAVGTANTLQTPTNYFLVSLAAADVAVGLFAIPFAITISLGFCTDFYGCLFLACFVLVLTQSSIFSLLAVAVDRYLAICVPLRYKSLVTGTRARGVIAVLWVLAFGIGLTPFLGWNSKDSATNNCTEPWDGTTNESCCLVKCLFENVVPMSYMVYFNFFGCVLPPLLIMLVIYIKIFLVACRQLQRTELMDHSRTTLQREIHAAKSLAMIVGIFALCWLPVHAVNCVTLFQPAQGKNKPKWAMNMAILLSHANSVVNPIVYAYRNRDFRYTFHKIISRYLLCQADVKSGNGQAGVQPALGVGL

[16] = biological target: 5-hydroxytryptamine receptor 2B (Homo sapiens, UniProt P41595); experiment: Displacement of [3H]-LSD from recombinant human 5HT2B receptor expressed in stable HEK cells after 90 mins by microbeta scintillation counting method; type: cell-based
[17] = biological target: Sodium-dependent dopamine transporter (Homo sapiens, UniProt Q01959); experiment: Displacement of [3H]-Win35428 from human recombinant DAT receptor expressed in stable HEK cells after 90 mins by microbeta scintillation counting method; type: cell-based
Sequence of Sodium-dependent dopamine transporter (Q01959 whole entry): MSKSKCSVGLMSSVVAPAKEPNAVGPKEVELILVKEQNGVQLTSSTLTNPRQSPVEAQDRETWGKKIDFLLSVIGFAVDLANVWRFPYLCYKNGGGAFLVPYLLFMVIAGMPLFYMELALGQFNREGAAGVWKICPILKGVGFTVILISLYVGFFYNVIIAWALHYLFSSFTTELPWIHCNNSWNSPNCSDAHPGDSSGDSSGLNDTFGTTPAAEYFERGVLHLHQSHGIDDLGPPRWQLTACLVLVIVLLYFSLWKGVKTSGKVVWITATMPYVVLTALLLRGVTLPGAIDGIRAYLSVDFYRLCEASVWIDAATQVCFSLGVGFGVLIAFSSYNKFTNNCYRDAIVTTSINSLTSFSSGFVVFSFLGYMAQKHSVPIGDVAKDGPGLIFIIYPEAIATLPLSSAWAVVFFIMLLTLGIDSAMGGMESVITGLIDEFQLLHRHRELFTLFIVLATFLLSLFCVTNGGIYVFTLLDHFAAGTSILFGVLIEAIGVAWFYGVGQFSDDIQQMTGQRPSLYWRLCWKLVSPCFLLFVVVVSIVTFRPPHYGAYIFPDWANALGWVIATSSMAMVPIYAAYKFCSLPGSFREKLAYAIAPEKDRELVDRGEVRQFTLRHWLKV

T2 sequence (P29274 whole entry): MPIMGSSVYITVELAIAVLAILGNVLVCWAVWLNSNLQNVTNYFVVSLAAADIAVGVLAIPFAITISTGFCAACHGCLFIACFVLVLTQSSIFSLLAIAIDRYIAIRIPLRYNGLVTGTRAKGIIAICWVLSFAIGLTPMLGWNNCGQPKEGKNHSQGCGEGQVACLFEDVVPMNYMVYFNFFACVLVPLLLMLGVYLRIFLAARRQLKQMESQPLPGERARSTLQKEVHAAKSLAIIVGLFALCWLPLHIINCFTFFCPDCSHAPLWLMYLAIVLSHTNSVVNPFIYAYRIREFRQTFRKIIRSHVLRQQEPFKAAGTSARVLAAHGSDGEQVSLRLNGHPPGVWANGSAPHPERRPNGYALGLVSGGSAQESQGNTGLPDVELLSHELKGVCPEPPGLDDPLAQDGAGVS
Sequence of Beta-3 adrenergic receptor (Homo sapiens) (P13945 whole entry, looked up): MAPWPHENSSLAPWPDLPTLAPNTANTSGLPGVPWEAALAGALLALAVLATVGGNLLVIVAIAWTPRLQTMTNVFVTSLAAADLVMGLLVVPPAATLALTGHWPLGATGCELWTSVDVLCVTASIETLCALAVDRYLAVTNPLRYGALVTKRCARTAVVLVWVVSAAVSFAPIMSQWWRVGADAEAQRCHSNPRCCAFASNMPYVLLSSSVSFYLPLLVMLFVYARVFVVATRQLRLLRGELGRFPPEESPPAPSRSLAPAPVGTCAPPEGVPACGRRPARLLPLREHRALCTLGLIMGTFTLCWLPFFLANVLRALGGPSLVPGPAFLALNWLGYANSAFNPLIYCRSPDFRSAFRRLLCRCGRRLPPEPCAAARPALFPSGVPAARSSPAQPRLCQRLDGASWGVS
Sequence of Adenosine receptor A2a (Mus musculus) (Q60613 whole entry): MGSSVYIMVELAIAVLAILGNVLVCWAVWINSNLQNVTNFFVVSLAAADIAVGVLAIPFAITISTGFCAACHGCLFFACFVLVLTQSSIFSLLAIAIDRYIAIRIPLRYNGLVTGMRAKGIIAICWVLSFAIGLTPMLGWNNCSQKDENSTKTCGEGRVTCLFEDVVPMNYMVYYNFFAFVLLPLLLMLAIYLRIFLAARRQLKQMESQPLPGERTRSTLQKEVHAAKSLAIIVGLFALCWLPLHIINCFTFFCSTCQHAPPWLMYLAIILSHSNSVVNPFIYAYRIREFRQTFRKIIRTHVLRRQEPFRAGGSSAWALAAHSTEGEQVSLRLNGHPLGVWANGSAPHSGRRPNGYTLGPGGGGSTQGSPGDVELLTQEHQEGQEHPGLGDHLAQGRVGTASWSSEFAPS
Sequence of 5-hydroxytryptamine receptor 2B (P41595 whole entry): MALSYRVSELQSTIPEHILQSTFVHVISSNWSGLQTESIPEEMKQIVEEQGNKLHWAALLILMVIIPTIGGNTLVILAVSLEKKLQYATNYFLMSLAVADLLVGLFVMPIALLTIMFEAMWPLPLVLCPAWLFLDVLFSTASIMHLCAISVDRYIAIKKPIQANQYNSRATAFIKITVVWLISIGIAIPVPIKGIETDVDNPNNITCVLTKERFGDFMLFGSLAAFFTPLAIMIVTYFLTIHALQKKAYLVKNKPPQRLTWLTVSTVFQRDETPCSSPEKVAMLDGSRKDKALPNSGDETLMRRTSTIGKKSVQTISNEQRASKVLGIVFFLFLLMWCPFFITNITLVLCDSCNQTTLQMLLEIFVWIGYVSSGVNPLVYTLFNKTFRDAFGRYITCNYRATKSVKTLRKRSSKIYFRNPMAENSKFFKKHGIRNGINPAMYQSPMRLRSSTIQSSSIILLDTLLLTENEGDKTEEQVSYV

CCOC(=O)[C@@]12C[C@@H]1[C@@H](n1cnc3c(NC)cc(C#Cc4ccc(Cl)s4)nc31)[C@H](O)[C@@H]2O
inhibition [1]: 17% | inhibition [2]: 5% | inhibition (Adenosine receptor A2a [3]): 18% | inhibition [4]: 54%

CCNc1cc(C#Cc2ccc(F)s2)nc2c1ncn2[C@H]1[C@H](O)[C@H](O)[C@]2(C(=O)NC)C[C@H]12
Ki (Adenosine receptor A3 [5]): 2.78 nM | Activity [6]: Active | inhibition [1]: 31% | Ki (Adenosine receptor A3 [7]): 25 nM | inhibition [2]: 4% | inhibition (Adenosine receptor A2a [3]; filed as agonist): 61% | inhibition [4]: 53%

CCNc1cc(C#Cc2ccc(Cl)s2)nc2c1ncn2[C@H]1[C@H](O)[C@H](O)[C@]2(C(=O)NC)C[C@H]12
Activity [6]: Active | bioavailability [8]: 14% | Activity (HepG2): Non-Toxic | Stabilty [9]: Stable | Stabilty [10]: Stable

CCCNc1nc(C#Cc2ccc(Cl)s2)nc2c1ncn2[C@@H]1O[C@H](C(=O)NC)[C@@H](O)[C@H]1O
Ki (Adenosine receptor A1 [11]): 1160 nM | Ki (Adenosine receptor A1 [12]): 315 nM | inhibition (Adenosine receptor A2a [3]; filed as agonist): 49%

CNC(=O)[C@H]1O[C@@H](n2cnc3c(NC)cc(C#Cc4ccc(F)s4)nc32)[C@H](O)[C@@H]1O
Ki (Adenosine receptor A3 [5]): 26.6 nM | inhibition ([1]; filed as agonist): 47% | Ki (Adenosine receptor A3 [7]): 1200 nM | inhibition (Adenosine receptor A2a [3]): 15%

CCCNc1nc(C#Cc2ccc(F)s2)nc2c1ncn2[C@@H]1O[C@H](C(=O)NC)[C@@H](O)[C@H]1O
Ki (Adenosine receptor A3 [5]): 8.51 nM | Ki (Adenosine receptor A1 [11]): 369 nM | Ki (Adenosine receptor A3 [7]): 435 nM | Ki (Adenosine receptor A2a [13]): 2460 nM

CCNC(=O)[C@H]1O[C@@H](n2cnc3c(NC)nc(C#C[C@@H](O)c4ccccc4)nc32)[C@H](O)[C@@H]1O
Ki (Adenosine receptor A3 [14]): 0.75 nM

CNC(=O)[C@@]12C[C@@H]1[C@@H](n1cnc3c(NC)cc(C#Cc4ccc(Cl)s4)nc31)[C@H](O)[C@@H]2O
Activity [6]: Active

CNc1nc(C#Cc2ccc(Cl)s2)nc2c1ncn2[C@@H]1O[C@H](C(=O)OC)[C@@H](O)[C@H]1O
inhibition ([1]; filed as agonist): 46% | inhibition [2]: 12% | inhibition (Adenosine receptor A2a [3]): 8% | inhibition [4]: 53%

CNC(=O)[C@@]12C[C@@H]1[C@@H](n1cnc3c(NC)nc(C#Cc4ccc(Cl)s4)nc31)[C@H](O)[C@@H]2O
bioavailability [8]: 14% | Activity (HepG2): Non-Toxic | Stabilty [9]: Stable | Stabilty [10]: Stable | Activity [15]: inactive

CNC(=O)[C@@]12C[C@@H]1[C@@H](n1cnc3c(NC)nc(C#Cc4ccc(F)s4)nc31)[C@H](O)[C@@H]2O
Ki (Adenosine receptor A3 [5]): 0.28 nM | inhibition [1]: 33% | bioavailability [8]: 14% | Ki (Adenosine receptor A3 [7]): 85 nM | inhibition [2]: 5% | Ki (Adenosine receptor A1 [12]): 3260 nM | Activity (HepG2): Non-Toxic | Ki (Adenosine receptor A2a [13]): 4620 nM | Stabilty [9]: Stable | Stabilty [10]: Stable

CCCNc1nc(C#Cc2ccc(Cl)s2)nc2c1ncn2[C@H]1[C@H](O)[C@H](O)[C@]2(C(=O)NC)C[C@H]12
Activity [6]: Active

CCCNc1cc(C#Cc2ccc(Cl)s2)nc2c1ncn2[C@H]1[C@H](O)[C@H](O)[C@]2(C(=O)NC)C[C@H]12
Ki [16]: 760 nM | Ki [17]: 3940 nM

CCNc1nc(C#Cc2ccc(Cl)s2)nc2c1ncn2[C@H]1[C@H](O)[C@H](O)[C@]2(C(=O)NC)C[C@H]12
bioavailability [8]: 14% | Activity (HepG2): Non-Toxic | Stabilty [9]: Stable | Stabilty [10]: Stable

CNC(=O)[C@H]1O[C@@H](n2cnc3c(NC)nc(C#Cc4ccc(F)s4)nc32)[C@H](O)[C@@H]1O
Ki (Adenosine receptor A3 [5]): 2.3 nM | Ki (Adenosine receptor A1 [11]): 432 nM | Ki (Adenosine receptor A3 [7]): 1510 nM | inhibition (Adenosine receptor A2a [3]; filed as agonist): 45%

CNC(=O)[C@@]12C[C@@H]1[C@@H](n1cnc3c(NC)cc(C#Cc4ccc(F)s4)nc31)[C@H](O)[C@@H]2O
Ki (Adenosine receptor A3 [5]): 0.896 nM | Activity [6]: Active | inhibition [1]: 20% | Ki (Adenosine receptor A3 [7]): 37 nM | inhibition [2]: 6% | inhibition (Adenosine receptor A2a [3]; filed as agonist): 56% | inhibition [4]: 51%

CNC(=O)[C@H]1O[C@@H](n2cnc3c(NC)nc(C#Cc4ccc(Cl)s4)nc32)[C@H](O)[C@@H]1O
inhibition ([1]; filed as agonist): 58% | Ki (Adenosine receptor A1 [12]): 4170 nM | inhibition (Adenosine receptor A2a [3]): 7%

CCCNc1nc(C#Cc2ccc(F)s2)nc2c1ncn2[C@H]1[C@H](O)[C@H](O)[C@]2(C(=O)NC)C[C@H]12
Ki (Adenosine receptor A3 [5]): 1.13 nM | Ki (Adenosine receptor A1 [11]): 3980 nM | bioavailability [8]: 14% | Ki (Adenosine receptor A3 [7]): 10.6 nM | Activity (HepG2): Non-Toxic | Ki (Adenosine receptor A2a [13]): 838 nM | Stabilty [9]: Stable | Stabilty [10]: Stable

CCOC(=O)[C@@]12C[C@@H]1[C@@H](n1cnc3c(NC)nc(C#Cc4ccc(F)s4)nc31)[C@H](O)[C@@H]2O
Ki (Adenosine receptor A3 [5]): 10.4 nM | Ki (Adenosine receptor A1 [11]): 1670 nM | Ki (Adenosine receptor A3 [7]): 625 nM | Ki (Adenosine receptor A1 [12]): 864 nM | inhibition (Adenosine receptor A2a [3]): 27%

CNc1nc(C#Cc2ccc(Cl)s2)nc2c1ncn2[C@H]1[C@H](O)[C@H](O)[C@]2(C(=O)OC)C[C@H]12
inhibition [1]: 24% | inhibition (Adenosine receptor A2a [3]): 20%
